Measured values from PMC7215935, “GM1 Oligosaccharide Crosses the Human Blood–Brain Barrier In Vitro by a Paracellular Route” (International Journal of Molecular Sciences, 2020).

Experiments:
hBLECs = experiment: Metabolic integrity of OligoGM1 after hBLEC transport (HPTLC autoradiography); type: in vitro ADME, human; settings: basolateral compartment, detection limit 15 dpm
From the text: Since OligoGM1 is tritium labeled at position 6 of the external galactose, any possible galactosidase activity present on the plasma membrane of hBLECs can result in external galactose removal, leading to loss of radioactivity from the penta-saccharide. Radiolabeled galactose may pass the BBB or may enter into the cells and be recycled for the biosynthesis of new glycans, so that the radioactivity found may correspond to the galactose or to any possible new glycan rather than to the original oligosaccharide.
Thus, to test the integrity of the OligoGM1 molecule after hBLEC crossing, OligoGM1 solution was prepared in RH buffer at a final concentration of 100 μM plus 1 × 10^6 dpm of tritium-labeled OligoGM1. For the apical–basolateral transport experiment, the hBLEC insert’s apical side was filled with 0.5 mL of the drug solution and placed on 1.5 mL RH buffer-filled well of a 12-well plate. After 60 min, the solution of the receiving compartment (about 1.5 mL) was collected and 200 μL were combined with 5 mL of ULTIMA GOLD liquid (PerkinElmer), shaken, and counted for 20 min by a liquid scintillation analyzer (TRI-CARB 2100TR, Packard).
To verify that the counted radioactivity indeed corresponded to [^3H]OligoGM1, 0.5 mL of receiving compartment solution was lyophilized and suspended in 0.5 mL of methanol. […]

N2a cells = experiment: N2a differentiation by hBLEC-crossed OligoGM1 (morphology); type: cell-based, mouse; settings: basolateral solution (~25 μM), 24 h
Description: For differentiation experiments, N2a cells were seeded at 5 × 10^3/cm^2 and incubated for 24 h in regular culture condition to allow cell attachment. Before all treatments, growth medium was removed and cells were adapted for 30 min in pre-warmed (37 °C) Transfectagro medium containing 2% heat-inactivated FBS, 1% L-glutamine, and 1% penicillin/streptomycin solution. All treatments were conducted at 37 °C in a humidified atmosphere of 95% air/5% CO2.
Precisely, [^3H]OligoGM1 (1 × 10^6 dpm) diluted into cold OligoGM1 solution (300 µM) was administered for 240 min to hBLECs in the upper compartment so that at a volume of 0.5 mL there was 150 nmol of OligoGM1. […] After the 240 min incubation period, the basolateral solution was screened to find the quantity of crossed OligoGM1 by measuring ^3H-radioactivity and was then administered to N2a cells for 24 h. […] Morphological signals of neurodifferentiation were evaluated by cell observation and TrkA-ERK1/2 pathway activation was verified by immunoblotting (for procedural details see Supplementary Materials and [22, 23]). […]
Since mycoplasma could infect of Caco-2 cells, we validated the absence of any contamination by two methods (data not shown). […] Briefly culture supernatants were mixed with MycoAlert reagents according to manufacturer instruction and the luminescence was measured after 10 min using fluorimeter (BioTek, H1, Vermont, Winooski). […]

Structure (SMILES): CC(=O)NC1C(O)CC(OC2C(O)C(OC3C(CO)OC(O)C(O)C3O)OC(CO)C2OC2OC(CO)C(O)C(OC3OC(CO)C(O)C(O)C3O)C2NC(C)=O)(C(=O)O)OC1C(O)C(O)CO (stereo not drawn) [OligoGM1, β-Gal-(1-3)-β-GalNAc-(1-4)-[α-Neu5Ac-(2-3)]-β-Gal-(1-4)-β-Glc]
- metabolic stability after hBLEC crossing (hBLECs): not metabolized by hBLECs
- N2a cell morphology / neurite sprouting (N2a cells): induced a neuron-like morphology
